The values below come from US6992079B2, “Substituted 11-phenyl-dibenzazepine compounds useful for the treatment or prevention of diseases characterized by abnormal cell proliferation” (President Fellows of Harvard College, priority 1997, dated 2006).

For data set [1], the system named is NIH 3T3 mouse fibroblast cells. The data set can be described thus: Mitogenic assay (mitogen-induced cell proliferation). In kind it is cell-based. As to conditions: NIH3T3, 10 μM compound.
The nature of data set [2]: Preliminary toxicology, subcutaneous injection for 14 days. In kind it is in vivo, CD-1 female mice. As to conditions: mouse, in vivo, sc, 80 mg/kg/day. The method, then: The toxicological effects of CLT, and compounds 28, 30 and 31 were tested in CD-1 female mice. A dose of 80 mg/kg/day was given to each mouse via subcutaneous injection for a period of 14 days. Preliminary toxicological data was determined by measuring body weight, gross pathology of organs blood chemistry and histology. The vehicle used was DMF 12%+2% Tween 20 88%.

Data set [3] relates to Ca^2+ from intracellular pools / capacitative Ca^2+ influx. The data set can be described thus: Intracellular Ca2+ release and capacitative Ca2+ influx. In kind it is cell-based. As to conditions: in vitro.
Data set [4] deals with human melanoma MM-RU cells. Nature of the data set: Lung metastases in MM-RU tumor-bearing mice. It is filed as in vivo, nude mice.
Data set [5] has as its system squamous cell carcinoma (KLN-205) cells. The data set can be described thus: Tumor growth in murine squamous cell carcinoma model. In kind it is in vivo, mouse.
The next data set deals with HEPG2. The data set can be described thus: SRB antiproliferative assay. It is filed as cell-based. As to conditions: Homo sapiens, HepG2, HEPG2 (Hepatocel), 5% FCS/5 day incubation. An excerpt:
(§1) The cells were passaged using Trypsin (Gibco).
In general terms: Sulforhodamine B stains cellular protein and so reports cell mass.

The subject of another data set is MCF7. Nature of the data set: SRB antiproliferative assay. As to conditions: Homo sapiens. In kind it is cell-based.
From the text: as §1

The test system of a further data set is HTB174. The data set can be described thus: SRB antiproliferative assay. In kind it is cell-based. As to conditions: Homo sapiens, HTB174 (Lung), 5% FCS/5 day incubation.
From the text: as §1

For another data set, the system named is U118MG. Nature of the data set: SRB antiproliferative assay. In kind it is cell-based. As to conditions: Homo sapiens, U-118-MG, U118MG (CNS), 5% FCS/5 day incubation.
From the text: as §1

Another data set has as its system MDA-MB-23. The data set can be described thus: SRB antiproliferative assay. It is filed as cell-based. As to conditions: Homo sapiens; MDA-MB-23 (Breast); SRB; 5% FCS/5 day incubation; read-out: IC50.
From the text: as §1

The next data set concerns A549. Nature of the data set: SRB antiproliferative assay. It is filed as cell-based. As to conditions: Homo sapiens.
From the text: as §1

A further data set deals with HT29. The data set can be described thus: SRB antiproliferative assay. As to conditions: Homo sapiens. It is filed as cell-based.
From the text: as §1

The subject of the next data set is HeLa. Nature of the data set: SRB antiproliferative assay. In kind it is cell-based. As to conditions: Homo sapiens, HeLa (Cervical), 5% FCS/5 day incubation.
From the text: as §1

A further data set relates to MMRU. Nature of the data set: SRB antiproliferative assay. It is filed as cell-based. As to conditions: Homo sapiens.
From the text: as §1

Setting [6] is: mouse, in vivo, po, 120 mg/kg/day.
Where [7] appears, read: MCF7, MCF7 (Breast), 5% FCS/5 day incubation.
The mark [8] stands for this setting: A549, A549 (Lung), 5% FCS/5 day incubation.
Where [9] appears, read: HT-29, HT29 (Colon), 5% FCS/5 day incubation.
Where [10] appears, read: MMRU (Melanoma), 5% FCS/5 day incubation.

For `COc1cccc(C(=O)N2Cc3ccccc3C(c3ccccc3)c3ccccc32)c1` (centres unmarked) [Compound 17], the inhibition at 10 µM in data set [1] (Mus musculus) was determined as 99%.
In [1], `Clc1ccccc1C(c1ccccc1)(c1ccccc1)n1ccnc1` [Clotrimazole, reference compound] came in with an inhibition at 10 µM of 93%. Also, the “overall body weight vs age matched control animals” value in data set [2] is given as “no significant gains or losses”. Besides, in data set [3], the “Ca^2+ release from intracellular pools” value is on record as “releases Ca^2+ from intracellular pools” and the “capacitative Ca^2+ influx into the cell” value was “inhibits capacitative Ca^2+ influx”. In addition, in data set [4] (MM-RU tumor-bearing mice, 120 mg/kg/d × 21, p.o.), the “Lung Metastases” value was found to be 64 ± 20. Besides, in data set [4] (setting [6]), the “Body Wt. Change” value turned out to be 86% and the “Liver Wt.” value worked out at 1.19 ± 0.10 gram. Besides, the “cyclin D1 and PCNA expression in vivo” value in data set [5] (KLN induced tumors) is “abrogated cyclin D1 and PCNA expression”. The tumor growth entry in data set [5] (KLN-205, subcutaneous injection or oral administration of 80 mg/kg/day for 30 days) was “significantly inhibited tumor growth”.
In turn, `CCOC(=O)C(=O)N1Cc2ccccc2C(c2ccccc2)c2ccccc21` (centres unmarked) [Compound 10] showed an inhibition at 10 µM in data set [1] (Mus musculus) of 53%.
Take `CN1Cc2ccccc2C(c2ccccc2)c2ccccc21` (centres unmarked) [Compound 2]: the inhibition at 10 µM in [1] (Mus musculus) amounted to 99%.
Consider `COc1ccc(C(=O)N2Cc3ccccc3C(c3ccccc3Cl)c3ccccc32)cc1` (centres unmarked) [Compound 27], for which the half-inhibitory concentration (IC50) in the data set on HEPG2 was 400 nM; in the data set on MCF7 (setting [7]), 500 nM; in the data set on HTB174, 300 nM; with U118MG, 400 nM; in the data set with MDA-MB-23, more than 1000 nM; in the data set with A549 (setting [8]), 1100 nM. Also, the IC50 in the data set with HT29 (setting [9]) worked out at 400 nM; with HeLa, 200 nM. The compound further returned an inhibition at 10 µM in data set [1] (Mus musculus) of 99%.
Compound `O=C(O)C(=O)N1Cc2ccccc2C(c2ccccc2)c2ccccc21` (centres unmarked) [Compound 11] came in with an inhibition at 10 µM in data set [1] (Mus musculus) of 32%.
For `COC(=O)N1Cc2ccccc2C(c2ccccc2)c2ccccc21` (centres unmarked) [Compound 6], the IC50 in the data set with A549 (A549, A549, 5% FCS/2 days) was more than 10000 nM; with HT29 (HT-29, HT29, 5% FCS/2 days), more than 10000 nM. Moreover, in data set [1] (Mus musculus), at 10 µM the inhibition was 87%.
As for `O=C(c1ccc([N+](=O)[O-])cc1)N1Cc2ccccc2C(c2ccccc2)c2ccccc21` (centres unmarked) [Compound 20], the IC50 was 900 nM with HEPG2; 700 nM in the data set on HTB174; 900 nM with U118MG; more than 1000 nM in the data set with MDA-MB-23; 700 nM in the data set with HT29 (setting [9]); 600 nM with HeLa. This compound also registered an inhibition at 10 µM in [1] (Mus musculus) of 95%.
In the case of `O=C(Nc1ccccc1)N1Cc2ccccc2C(c2ccccc2Cl)c2ccccc21` (centres unmarked) [Compound 32], in data set [1] (Mus musculus), the inhibition at 10 µM was 99%.
As to `COc1ccc(C(=O)N2Cc3ccccc3C(c3ccccc3)c3ccccc32)cc1` (centres unmarked) [Compound 21], half-maximal inhibition in the data set on HTB174 (IC50) was put at 1900 nM. Also, in data set [1] (Mus musculus), at 10 µM the inhibition was 93%.
`COc1ccc2c(c1)CNc1ccccc1C2(c1ccccc1)c1ccc(F)cc1` (centres unmarked) [Compound 12]: 10 µM produced 13% inhibition in data set [1] (Mus musculus).
The compound `Clc1ccccc1C1c2ccccc2CNc2ccccc21` (centres unmarked) [Compound 3] came in with an inhibition at 10 µM in [1] (Mus musculus) of 99%.
In the case of `Nc1ccc(C(=O)N2Cc3ccccc3C(c3ccccc3Cl)c3ccccc32)cc1` (centres unmarked) [Compound 34], the IC50 in the data set with HEPG2 came to 1500 nM; in the data set on HTB174, 900 nM; in the data set on MMRU (setting [10]), 1200 nM. The compound further registered an inhibition at 10 µM in data set [1] (Mus musculus) of 99%.
For the compound `CNc1ccc(C(=O)N2Cc3ccccc3C(c3ccccc3Cl)c3ccccc32)cc1` (centres unmarked) [Compound 33], in the data set with HTB174, 1400 nM corresponded to half-maximal inhibition (IC50). Further, in data set [1] (Mus musculus), at 10 µM the inhibition was 99%.
In turn, `c1ccc(C2c3ccccc3CNc3ccccc32)cc1` (centres unmarked) [Compound 1] came in with an inhibition at 10 µM in [1] (Mus musculus) of 56%.
For `O=C(Nc1ccc([N+](=O)[O-])cc1)N1Cc2ccccc2C(c2ccccc2Cl)c2ccccc21` (centres unmarked) [Compound 35], the IC50 in the data set on HEPG2 was 4500 nM; in the data set with MCF7 (setting [7]), 2400 nM; with HTB174, 4000 nM; with A549 (setting [8]), more than 5000 nM; with HT29 (setting [9]), 4800 nM; in the data set on MMRU (setting [10]) it was 3100 nM. In data set [1] (Mus musculus), this compound showed an inhibition at 10 µM of 0%.
On to `O=C(Oc1ccccc1)N1Cc2ccccc2C(c2ccccc2)c2ccccc21` (centres unmarked) [Compound 14, N-phenoxycarbonyl-11-phenyl-5,6-dihydro-11H-dibenz[b,e]azepine], for which the melting point was in the range of 155 to 165 °C. In addition, at 10 µM the inhibition in data set [1] (Mus musculus) was 98%.
The compound `O=C(Oc1ccccc1)N1Cc2ccccc2C(c2ccccc2Cl)c2ccccc21` (centres unmarked) [Compound 26, N-phenoxycarbonyl-11-(2′-chlorophenyl)-5,6-dihydro-11H-dibenz[b,e]azepine] returned a melting point of 95 to 99 °C. In [1] (Mus musculus), this compound returned an inhibition at 10 µM of 99%.
`Clc1ccccc1C1c2ccccc2CN(Cc2ccccc2)c2ccccc21` (centres unmarked) [Compound 8] had an inhibition at 10 µM in data set [1] (Mus musculus) of 84%.
`c1ccc(CN2Cc3ccccc3C(c3ccccc3)c3ccccc32)cc1` (centres unmarked) [Compound 5] returned an inhibition at 10 µM in data set [1] (Mus musculus) of 91%.
In turn, `COc1ccc2c(c1)CN(C(=O)c1ccc(Cl)cc1)c1ccc(Cl)cc1C2c1ccccc1Cl` (centres unmarked) [Compound 23] returned an inhibition at 10 µM in [1] (Mus musculus) of 55%.
Compound `Clc1ccc2c(c1)C(c1ccccc1)c1cc3ccccc3cc1CN2` (centres unmarked) [Compound 15] displayed an inhibition at 10 µM in data set [1] (Mus musculus) of 40%.
As for `CN1Cc2ccccc2C(c2ccccc2Cl)c2ccccc21` (centres unmarked) [Compound 4], the half-inhibitory concentration (IC50) was determined as 1700 nM with MCF7 (MCF7, MCF7, 2% FCS/3 days); 11400 nM in the data set on A549 (A549, A549, 2% FCS/3 days); 9700 nM in the data set with HT29 (HT-29, HT29, 2% FCS/3 days); 4600 nM with MMRU (MMRU, 2% FCS/3 days). The same compound came in with an inhibition at 10 µM in data set [1] (Mus musculus) of 89%.
On to `COC(=O)N1Cc2ccccc2C(c2ccccc2Cl)c2ccccc21` (centres unmarked) [Compound 9, N-methoxycarbonyl-11-(2′-chlorophenyl)-5,6-dihydro-11H-dibenz[b,e]azepine], for which the melting point fell in the range of 159 to 161 °C. In [1] (Mus musculus), this compound returned an inhibition at 10 µM of 99%.
In the case of `Cc1ccc(C(=O)N2Cc3ccccc3C(c3ccccc3)c3ccccc32)cc1` (centres unmarked) [Compound 22], in the data set on HTB174, the half-inhibitory concentration (IC50) was 1400 nM. This compound also had an inhibition at 10 µM in [1] (Mus musculus) of 99%.
In data set [1] (Mus musculus), `CN1Cc2ccccc2C(c2ccccc2)c2cc(Br)ccc21` (centres unmarked) [Compound 7] showed an inhibition at 10 µM of 99%.
The same measure, in the same setting: in the case of `COc1cccc2c1C(c1ccccc1Cl)c1cc(Cl)ccc1N(C(=O)c1ccc(Cl)cc1)C2` (centres unmarked) [Compound 24] it was 89%.
The compound `COc1cccc2c1C(c1ccccc1Cl)c1cc(Cl)ccc1NC2` (centres unmarked) [Compound 18] showed an inhibition at 10 µM in data set [1] (Mus musculus) of 99%.
For the compound `COc1ccc2c(c1)CNc1ccc(Cl)cc1C2c1ccccc1Cl` (centres unmarked) [Compound 19], the inhibition at 10 µM in data set [1] (Mus musculus) is 99%.
`O=C(c1ccc(Cl)cc1)N1Cc2ccccc2C(c2ccccc2)c2ccccc21` (centres unmarked) [Compound 13] yielded an inhibition at 10 µM in [1] (Mus musculus) of 97%.
For the compound `O=C(c1ccccc1)N1Cc2ccccc2C(c2ccccc2)c2ccccc21` (centres unmarked) [Compound 16], the IC50 in the data set with HEPG2 was 3400 nM; in the data set on MCF7 (setting [7]) it was 4200 nM; in the data set with A549 (setting [8]) it was more than 5000 nM; with HT29 (setting [9]) it was 2600 nM; in the data set on MMRU (setting [10]), 2700 nM. This compound also had an inhibition at 10 µM in data set [1] (Mus musculus) of 99%.
`O=C(c1ccc2ccccc2c1)N1Cc2ccccc2C(c2ccccc2)c2ccccc21` (centres unmarked) [Compound 25] showed an inhibition at 10 µM in [1] (Mus musculus) of 75%.

A word on the inhibition: it is the relative decrease from the control value, in per cent. Read a low inhibition as little suppression. What is called IC50 is the concentration at which inhibition is half-maximal. In general, melting point refers to the temperature, or range, at which the solid turns liquid.
